Experimental data published in ChEMBL document CHEMBL1129895, “A novel series of matrix metalloproteinase inhibitors for the treatment of inflammatory disorders” (Bioorg Med Chem Lett, 1997).
Square brackets hold non-standard residues; d marks the D form. Peptide text beside a SMILES is read from it. * marks the point of attachment. Propionyl = CCC(=O)*; Mpa = O=C(O)CCS

What was measured:
Neutrophil collagenase = Neutrophil collagenase (Rattus norvegicus, UniProt O88766); assay: Compound was tested for its inhibitory activity against Matrix metalloprotease-8 (MMP-8) in adjuvant arthritic rat model of rheumatoid arthritis
[1] = target: T1, Matrix metalloproteinase-9 (Rattus norvegicus, UniProt P50282); assay: Compound was tested for its inhibitory activity against Matrix metalloprotease-9 (MMP-9) in adjuvant arthritic rat model of rheumatoid arthritis
[2] = target: T1, Matrix metalloproteinase-9; assay: Compound was tested for its inhibitory activity against Matrix metalloprotease-9 in adjuvant arthritic rat model of rheumatoid arthritis
Rattus norvegicus = assay: Inhibition of hind paw swelling was observed by the administration of compound at 40 mg/kg/day, perorally in adjuvant arthritic rat model of rheumatoid arthritis; assay type: functional; conditions: route oral

T1 sequence (P50282 whole entry): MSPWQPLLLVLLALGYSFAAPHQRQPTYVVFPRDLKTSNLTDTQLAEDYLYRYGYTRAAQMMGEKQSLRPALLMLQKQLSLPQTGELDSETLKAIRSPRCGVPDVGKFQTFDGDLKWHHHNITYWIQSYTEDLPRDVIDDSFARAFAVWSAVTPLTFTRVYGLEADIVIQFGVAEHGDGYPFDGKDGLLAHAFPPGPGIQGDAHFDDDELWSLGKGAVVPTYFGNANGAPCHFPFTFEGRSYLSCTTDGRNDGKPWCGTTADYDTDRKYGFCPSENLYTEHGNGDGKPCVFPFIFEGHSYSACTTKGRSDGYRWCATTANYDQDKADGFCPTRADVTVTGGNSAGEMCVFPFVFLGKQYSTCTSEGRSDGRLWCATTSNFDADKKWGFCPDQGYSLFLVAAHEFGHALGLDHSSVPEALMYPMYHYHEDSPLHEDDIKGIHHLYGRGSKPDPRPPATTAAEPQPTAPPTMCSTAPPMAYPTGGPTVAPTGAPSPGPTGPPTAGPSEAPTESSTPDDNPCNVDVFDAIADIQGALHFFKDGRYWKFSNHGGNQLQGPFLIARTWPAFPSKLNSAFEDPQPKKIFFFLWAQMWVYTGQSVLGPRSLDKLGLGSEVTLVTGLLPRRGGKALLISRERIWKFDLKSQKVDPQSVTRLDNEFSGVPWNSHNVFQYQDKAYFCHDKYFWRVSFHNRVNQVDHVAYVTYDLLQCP
Chain of Neutrophil collagenase (O88766 whole entry): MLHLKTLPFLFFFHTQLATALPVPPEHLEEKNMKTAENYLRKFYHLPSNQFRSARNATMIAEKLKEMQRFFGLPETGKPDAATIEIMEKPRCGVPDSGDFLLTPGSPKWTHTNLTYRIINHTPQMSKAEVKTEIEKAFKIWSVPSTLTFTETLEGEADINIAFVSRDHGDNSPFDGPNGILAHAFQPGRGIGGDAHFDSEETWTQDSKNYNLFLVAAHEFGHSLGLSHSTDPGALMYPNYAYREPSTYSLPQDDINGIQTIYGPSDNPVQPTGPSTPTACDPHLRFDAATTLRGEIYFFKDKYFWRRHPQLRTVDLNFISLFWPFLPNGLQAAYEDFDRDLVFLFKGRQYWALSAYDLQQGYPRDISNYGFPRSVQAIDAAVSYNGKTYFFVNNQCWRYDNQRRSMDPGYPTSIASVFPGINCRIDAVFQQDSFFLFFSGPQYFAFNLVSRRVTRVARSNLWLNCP

| SMILES | IC50 (Neutrophil collagenase) | IC50 [1] | IC50 [2] | inhibition in vivo at 40 mg/kg/day (Rattus norvegicus) |
| --- | --- | --- | --- | --- |
| CNC(=O)[C@H](Cc1cscn1)NC(=O)[C@H](CC(C)C)NC(=O)CS | 0.012 µM | 0.007 µM |  |  |
| CNC(=O)[C@H](Cc1ccccc1)NC(=O)[C@H](CSC)NC(=O)CS | 0.006 µM |  | 0.013 µM |  |
| CNC(=O)[C@H](Cc1ccccc1)NC(=O)[C@H](C[S+](C)[O-])NC(=O)CS (stereo partly specified) | 0.48 µM |  | 0.35 µM |  |
| CNC(=O)[C@H](Cc1ccccc1)NC(=O)[C@@H](NC(=O)CS)C(C)O (stereo partly specified) | 4.1 µM |  | 1.7 µM |  |
| CNC(=O)[C@H](Cc1ccccc1)NC(=O)[C@H](CC(C)C)NC(=O)CS | 0.05 µM |  | 0.09 µM | 40% |
| CNC(=O)[C@H](Cc1ccccc1)NC(=O)[C@H](CC(C)C)NC(=O)CSC | 2.6 µM |  | 4.6 µM |  |
| CNC(=O)[C@H](Cc1c[nH]c2ccccc12)NC(=O)[C@H](CSC)NC(=O)CS | 0.02 µM | 0.12 µM |  |  |
| CNC(=O)[C@H](Cc1c[nH]c2ccccc12)NC(=O)[C@H](CC(C)C)NC(=O)CS | 0.08 µM | 0.03 µM |  |  |
| CCC(=O)N[C@@H](CC(C)C)C(=O)N[C@@H](Cc1ccccc1)C(=O)NC (Propionyl-Leu-Phe-NHMe) | > 100 µM |  | 30 µM |  |
| CNC(=O)[C@H](Cc1ccccc1)NC(=O)[C@H](CC(C)C)NC(=O)CCS ([Mpa]-Leu-Phe-NHMe) | 5.1 µM |  | 9.6 µM |  |
